Test results published in patent US20170112773A1, “PLASMA MEMBRANE VESICLES COMPRISING FUNCTIONAL TRANSMEMBRANE PROTEINS” (Board of Regents, the University of Texas System, priority 2015, published 2017).

Key:
[1] = tested on: recipient HeLa cells; assay: Dye delivery study: CRO dye delivery to recipient cells, flow cytometry; format: cell-based; conditions: 300 μM carbenoxolone
Protocol: The media for the blocked condition was supplemented with 300 μM carbenoxolone, prepared from a 100 mM stock in water. […] Recipient cells for the blocked condition were incubated in PBS supplemented with 300 μM carbenoxolone. Calcein red-orange-loaded vesicles were formed using calcium-free GPMV buffer. […] This ratio was estimated based on hemocytometer counts of the number of vesicles and of the number of recipient cells in a 12 well dish. […] At least 7,500 cells were analyzed for each trial.

[2] = tested on: HeLa cells; conditions: 24 hours of exposure, literature; cited from earlier work
[3] = in vitro; conditions: human, HeLa cells
Protocol: Recipient HeLa cells were plated in a 12 well plate at a density of 25,000 cells per well and a total media volume of 2 mL media per well. Seven hours before addition of the GPMVs, recipient cells received fresh media. Just before addition of the GPMVs, the recipient cells were rinsed once with 2 mL PBS and then incubated in 500 μL fresh PBS. Concentrated GPMVs were resuspended in fresh calcium-free GPMV buffer and counted using a hemocytometer. GPMVs were added to recipient cells at a ratio of approximately 1 GPMV per 2 recipient cells and incubated in the dark at 37° C. with 5% CO2 for 2 hours. After incubation, the recipient cells were rinsed with 2 mL media and then incubated in 2 mL fresh media at 37° C. with 5% CO2. After 24 hours, cell viability was analyzed using a trypan blue or 7-AAD permeability assay.
For the trypan blue assay, the cells were trypsinized with 500 μL trypsin for 5 minutes at 37° C., 5% CO2. […] At least 90 cells were counted for each trial using a hemocytometer. […]
The relationship between the concentration of doxorubicin added via solution and cell viability was determined by incubating recipient HeLa cells in the specified doxorubicin concentration diluted in media from a 10 mM stock in DMSO for 24 hours. Cell viability was measured using both viability assays as described above.

[4] = in vitro; conditions: human, HeLa cells; remark: listed apart in the source
Protocol: Recipient HeLa cells were plated in a 12 well plate at a density of 25,000 cells per well and a total media volume of 2 mL media per well. Seven hours before addition of the GPMVs, recipient cells received fresh media. Just before addition of the GPMVs, the recipient cells were rinsed once with 2 mL PBS and then incubated in 500 μL fresh PBS. Concentrated GPMVs were resuspended in fresh calcium-free GPMV buffer and counted using a hemocytometer. GPMVs were added to recipient cells at a ratio of approximately 1 GPMV per 2 recipient cells and incubated in the dark at 37° C. with 5% CO2 for 2 hours. […] After 24 hours, cell viability was analyzed using a trypan blue or 7-AAD permeability assay.
For the 7-AAD assay, the cells were trypsinized with 500 μL trypsin for 5 minutes at 37° C., 5% CO2. […] Five μL of 7-AAD was added to 45 μL of the resuspended cells, and analyzed using flow cytometry within three minutes of 7-AAD addition. At least 5,000 cells were analyzed for each trial. […] To determine the percentage of non-viable cells in each sample, a threshold was drawn on the flow cytometry fluorescence histograms at the minimum point between the population of cells excluding the dye and the population of cells including the dye. The percentage of cells with fluorescence above these thresholds were considered non-viable. […]

[5] = in vitro; conditions: human, MCF-7 cells
Protocol: To test Connectosomes in a second model cell line, the assay was repeated using recipient MCF-7 cells. […] First, a control study was conducted in which the viability of a confluent monolayer of MCF-7 cells was measured 48 hours after free doxorubicin was added directly to the cell media at increasing concentrations from 10 nM to 100 μM (FIG. 4J). Next, independent cell samples were exposed to increasing concentrations of Connectosomes, which were equivalent in terms of total doxorubicin content to free doxorubicin concentrations of 180 nM, 900 nM, and 4.5 μM.

[6] = tested on: CEM-SS lymphocytes; conditions: peptide concentration 0.1-1 mM, CEM-SS lymphocytes in culture; cited from earlier work

Q: With `CC1(C)[C@@H](OC(=O)CCC(=O)O)CC[C@]2(C)[C@H]3C(=O)C=C4[C@@H]5C[C@@](C)(C(=O)O)CC[C@]5(C)CC[C@@]4(C)[C@]3(C)CC[C@@H]12` [carbenoxolone] as the compound, how does the “Effect of gap junction inhibitor on CRO dye delivery by Connectosomes” value [1] read?
A: significantly decreased the average recipient cell fluorescence

Q: For `COc1cccc2c1C(=O)c1c(O)c3c(c(O)c1C2=O)C[C@@](O)(C(=O)CO)C[C@@H]3O[C@H]1C[C@H](N)[C@H](O)[C@H](C)O1` [free doxorubicin, doxorubicin], which “Cytotoxic dose of doxorubicin” value [2] is on record?
A: approximately 10 μM

Q: And the cytotoxicity at 24 h, 10 µM [3]?
A: 44%

Q: What about the cytotoxicity at 24 h, 100 µM [3] of the same compound?
A: 87%

Q: And the cytotoxicity at 24 h, 10 µM [4]?
A: 45%

Q: And the cytotoxicity at 48 h, 100 µM [5]?
A: 44%

Q: For “SEQ ID NO:1: fusogenic peptide from influenza virus hemagglutinin HA-2”, which “Increase of anti-HIV potency of antisense oligonucleotides” value [6] is on record?
A: up to 10 fold
